Measurements: patent publication US20210106567A1, “COMPOSITIONS AND METHODS FOR INHIBITING CARP-1 BINDING TO NEMO” (United States Government As Represented By The Department …, priority 2019, published 2021)

Legend:
[1] = system: RENCA renal cancer tumors; experiment: RENCA cell-derived syngeneic kidney cancer tumor model; conditions: throughout the experiment
Experimental: The subcutaneous tumor bearing mice were treated with indicated agents. […] The end-points for assessing anti-tumor activity involved qualitative determination via tumor growth inhibition (% T/C) where T is the median tumor volume of the treated mice and C is the median tumor volume of the Control mice on any given day of measurement.

MDR1 = experiment: Levels of drug efflux pump MDR1; assay type: cell-based, human; conditions: MDA-MB-468 cells
Description: Of note is that SNI-1 in combination with Adriamycin provoked a greater inhibition of tumor growth when compared with the tumor growth inhibition noted in animals treated with either agent alone. […] Since TNBCs and many other cancers are often known to express drug efflux pumps that contribute to lower efficacy of drugs in clinic and development of drug-resistant tumors, it is likely that the presence/expression of these drug efflux pumps function in part to interfere with a robust anti-tumor response to a combination of SNI-1 and Adriamycin.

[2] = system: p65/RelA activation and phosphorylation of NEMO; experiment: Western blot for canonical NF-κB activation; assay type: cell-based; conditions: single agent, Western blot
Description: The cells were lysed to prepare protein extracts.

[3] = system: parental and chemo-resistant human and murine TNBC cells and parental renal cancer cells; experiment: Cytokine ELISA of culture media, chemotherapy-induced secretion; assay type: cell-based; conditions: single agent
4T1 TNBC tumors = experiment: 4T1 TNBC syngeneic tumor efficacy study in Balb/c mice; assay type: in vivo, mouse
Experimental: Establishment of TNBC cell-derived xenografts in Syngeneic mice: Generation of 4T1 TNBC cell-derived sub-cutaneous xenografts in Balb/c mice were performed (Cheriyan et al. (2016) Oncotarget 7, 73370-73388; and Cheriyan et al. (2017) Oncotarget 8, 104928-104945). BALB/cAnNCr, 6-8-weeks old, female mice were purchased from Charles River Laboratories (Horsham, Pa.). Following suitable acclimation of animals, 1×10^6 4T1 TNBC cells were re-suspended in 200 μl of sterile saline, and implanted in the flanks using a 27-gauge needle. Tumors were allowed to grow to 500-1000 mg (˜10 days), and the aseptically harvested, minced into 3-4 mm^3 (30 mg) fragments and transplanted SC into naïve recipient mice using a standard 12 gauge trocar to serially maintain the tumor in vivo. For efficacy studies, tumors serially maintained in vivo were aseptically harvested and minced into 3-4 mm^3 (30 mg) fragments, then bilaterally transplanted subcutaneously along the flanks using a standard 12 gauge trocar. […] For the efficacy studies, SNI-1 was formulated in 8% DMSO (v/v) and 8% Cremophor (v/v) in cell grade water, pH4 as diluent.
Clinical grade ADR stock (2 mg/mL) was diluted to the appropriate concentration with cell grade water; pH4 and clinical grade CIS (1 mg/ml) diluted with USP 0.9% saline; pH6). Mice were monitored daily for changes in condition and body weight. Tumors were measured three times weekly by caliper and tumor volume (mg) was calculated using the following formula: (A×B2)/2 where A and B are the tumor length and width (in mm), respectively. […] Efficacy was also assessed quantitatively using tumor growth delay (T−C) defined as the difference between the median time (in days) required for the treatment group tumors (T) to reach 1000 mg and the median time (days) for the control group tumors to reach the same volume. Post last treatment, tumor tissue and samples from various organs (spleen, liver, kidney, heart, bone, and lungs) were collected. Additionally, the whole blood samples were obtained from a representative tumor-bearing mouse from each group via terminal cardiac puncture. Immuno-histochemical analyses of the tumor and tissue samples were performed for expression of activated RelA (serine 536 phosphorylated p65), total RelA, cleaved caspase-3, and CARP-1 proteins. The levels of pro-inflammatory cytokines in the sera were analyzed by sandwich ELISA assays following methods detailed herein (Cheriyan et al. (2016) Oncotarget 7, 73370-73388; and Cheriyan et al. (2017) Oncotarget 8, 104928-104945).

Compound: N.N.[Cl][Pt][Cl] [Cisplatin]
- weight loss in animals [1]: 0.8-3.2%
- levels of drug efflux pump MDR1 (MDR1): robust increase
- p65/RelA activation and phosphorylation of NEMO [2]: robust increase
- levels of TNFα, IL-8, and IL-1β in the media [3]: robust increase
- serum levels of TNFα and IL-1β (4T1 TNBC tumors; ELISA of sera): robustly stimulated
- phosphorylated p65/RelA in tumors (immuno-histochemistry) (4T1 TNBC tumors; mouse, in vivo): presence of phosphorylated p/65RelA
- cleaved caspase-3 in tumors (immuno-histochemistry) (4T1 TNBC tumors; versus untreated control animal): strong presence of cleaved caspase-3
